Results as given in patent publication US20240024291A1, “Uses of Dihydroorotate Dehydrogenase Inhibitors” (University of Maryland, Baltimore, priority 2022, published 2024).

Experiments:
[1] = test system: 08-387 glioblastoma neurosphere line; assay: CellTiter-Glo in vitro proliferation assay; type: cell-based, human; details: for IC50: Homo sapiens
Method: (§1) A Biospherix X3, hypoxic incubation system, was maintained at 37° C., 1% 02, 5% CO2, and 94% N2 (Biospherix, Ltd—Parish, NY) to conduct in vitro hypoxic experiments. Cells were plated, then incubated in normoxia overnight before transferring the culture dishes to hypoxia for the duration indicated in the main text.
(§2) […] Cell Titer-Glo® Luminescent Cell Viability Assay (Promega, Madison, WI, USA) was performed 72 hours after treatment. Luminescence was determined using a Cytation 5 reader and Gen5 software package (BioTek, Winooski, VT, USA).
(§3) The compound's efficacy was examined against a collection of genetically diverse patient-derived GSC lines in vitro. The IC50 profiles of compound 1 in the seven GSC lines tested were established using the CellTiter-Glo® reagent and calculated with GraphPad software.

[2] = test system: 913 glioblastoma neurosphere line; assay: CellTiter-Glo in vitro proliferation assay; type: cell-based, human
Method: as §1, §2, §3

[3] = test system: Mayo15 glioblastoma neurosphere line; assay: CellTiter-Glo in vitro proliferation assay; type: cell-based; details: Homo sapiens
Method: as §1
(§4) Glioblastoma neurosphere lines were plated in 96-well plates at 25,000 cells per well in […] of media and treated with compound 1 in the presence or absence of 100 μM uridine. Cell Titer-Glo® Luminescent Cell Viability Assay (Promega, Madison, WI, USA) was performed 72 hours after treatment. Luminescence was determined using a Cytation 5 reader and Gen5 software package (BioTek, Winooski, VT, USA).
as §3

[4] = test system: Mayo39 glioblastoma neurosphere line; assay: CellTiter-Glo in vitro proliferation assay; type: cell-based; details: Homo sapiens
Method: as §1, §4, §3

[5] = test system: 1079 glioblastoma neurosphere line; assay: CellTiter-Glo in vitro proliferation assay; type: cell-based; details: Homo sapiens
Method: as §1, §4, §3

[6] = test system: 08-387 glioblastoma neurosphere line; assay: gH2AX foci immunofluorescence (DNA damage); type: cell-based, human; details: IC50 dose
Method: (§5) The 913, 3691, 08-387, and 1079 glioblastoma neurosphere-derived cells (1×10^4) were treated with DMSO (control) or IC50 concentration of compound 1 and cultured in either normoxia or hypoxia for 48 hours. Cells were spun with a Milles Scientific Cyto-Tek Model 4325 cytocentrifuge slide centrifuge onto Superfrost slides (VWR-48311-703) at 1500 rpm for 5 minutes. Slides were rinsed briefly with Hanks Balanced Salt Solution (HBSS), fixed in 4% paraformaldehyde in PBS, and rinsed with HBSS twice to remove any residual fixative. Cells were permeabilized with PBS containing 0.1% Triton-X100 (PBST) for 15 minutes, then blocked for 1 hour with PBST with 5% BSA. The slides were incubated overnight at 4° C. with Phospho-H2AX antibody (see above), diluted 1:250 in PBST containing 5% BSA. Slides were rinsed three times with HBSS, then incubated for one hour at room temperature with donkey anti-mouse, Alexa488-conjugated, secondary antibody diluted 1:500 in PBST containing 5% BSA (see above). Cell nuclei were counterstained with DAPI (150 nM), and the slides were cover-slipped with Prolong antifade mounting media (Molecular Probes #P36961). Using a 40X objective, at least ten random high-power fields, per condition, were captured with a Nikon W-1 Spinning Disk confocal microscope through the University of Maryland Baltimore CIBR confocal facility. The number of yH2AX-positive foci per cell was counted using ImageJ (unige.ch/medecine/bioimaging/files/3714/1208/5964/CellCounting.pdf). Individual cells with ten or more foci were considered positive for significant DNA damage. At least 300 cells were analyzed in each sample.
(§6) Reduced de novo pyrimidine synthesis mediated by MCT4-depletion promoted an accumulation of DNA damage (29). To test and quantify the magnitude of compound 1 effect on DNA damage, the four compound 1 responsive GBM neurosphere lines 913, 3691, 08-387, and 1079 were cultured in normoxia (21% oxygen) and hypoxia (1% oxygen) with a model-specific IC50 dose of compound 1 for 48 hours followed by immunocytochemical analysis of the DNA-damage marker g-H2AX. Table 1 is a summary of IC50 (nM or mM) values established for the seven glioblastoma neurosphere lines

[7] = test system: 3691 glioblastoma neurosphere line; assay: gH2AX foci immunofluorescence (DNA damage); type: cell-based, human; details: IC50 dose
Method: as §5, §6

[8] = test system: 913 glioblastoma neurosphere line; assay: gH2AX foci immunofluorescence (DNA damage); type: cell-based, human; details: IC50 dose
Method: as §5, §6

[9] = test system: 1079 glioblastoma neurosphere line; assay: gH2AX foci immunofluorescence (DNA damage); type: cell-based, human; details: IC50 dose
Method: as §5, §6

[10] = test system: 08-387 neurosphere line transduced with EGFRvIll or GFP; assay: Resistance assay, EGFRvIll or GFP transduced cells; type: cell-based, human; parameters: dose or concentration left out as unconfirmed
Method: (§7) Ten thousand 08-387 or 913 glioblastoma cells per well were seeded in a 96 well plate. Post 24 hr plating, 08-387 and 913 cells were treated with a varying dosage of compound 1 or with a varying dosage of gemcitabine alone or with 100 nM of compound 1. Post 72 hr of treatment, cell viability was calculated on Alamar blue absorbance reading.
(§8) The pLV[Expressior]-mCherry:T2A:Hygro-EF1A>Luc2 (Addgene Plasmid #174665) and pLV[Exp]-Bsd-EFS>EGFRvIll:T2A:TurboGFP (Addgene Plasmid #189841) lentivirus plasmids were designed by us and constructed by VectorBuilder. These plasmids are available at Addgene.
(§9) To further evaluate the potential role of EGFR in compound 1 resistance, the 913 and 08-387 neurosphere lines were transduced with lentiviruses encoding EGFRvIll or GFP (as control) and these neurospheres were challenged with a relatively high dose of 1 mM compound 1.

[11] = test system: 913 neurosphere line transduced with EGFRvIll or GFP; assay: Resistance assay, EGFRvIll or GFP transduced cells; type: cell-based, human; parameters: dose or concentration left out as unconfirmed
Method: as §7, §8, §9

With `CCn1c(CO)nn(-c2cc(O[C@@H](C)C(F)(F)F)c(C(=O)Nc3c(F)cccc3Cl)cc2F)c1=O` [Compound 1, N-(2-chloro-6-fluorophenyl)-4-[4-ethyl-4,5-dihydro-3-(hydroxymethyl)-5-oxo-1H-1,2,4-triazol-1-yl]-5-fluoro-2-[(1S)-2,2,2-trifluoro-1-methylethoxy]-benzamide] the “effect of uridine on growth inhibition” value ([1]; 08-387, with 100 mM uridine, all concentrations tested) was “entirely rescued”, the IC50 ([1]; 08-387, uridine rescue experiment, compound 1 alone, normoxia and hypoxia) was 0.001 to 0.01 µM and the IC50 ([1]; 72 h, 08-387, hypoxia) was 0.0114 µM. For the same molecule, the IC50 ([1]; 72 h, 08-387, normoxia) was 0.0047 µM, the “effect of uridine on growth inhibition” value ([2]; 913, with 100 mM uridine, all concentrations tested) was “entirely rescued” and the IC50 ([2]; Homo sapiens, 913, uridine rescue experiment, compound 1 alone, normoxia and hypoxia) was 0.001 to 0.01 µM. It also gave an IC50 ([2]; Homo sapiens, 72 h, 913, hypoxia (1% oxygen), 72 hours) of 0.0067 µM, an IC50 ([2]; Homo sapiens, 72 h, 913, normoxia (21% oxygen), 72 hours) of 0.0153 µM and an IC50 ([3]; 72 h, Mayo15, hypoxia) of 146 µM. The IC50 ([3]; 72 h, Mayo15, normoxia) was 64 µM, the IC50 ([3]; Mayo15) was 64 µM and the IC50 ([4]; 72 h, Mayo39, hypoxia) was 153 µM. It also gave an IC50 ([4]; 72 h, Mayo39, normoxia) of 182 µM, an IC50 ([4]; Mayo39) of 182 µM and an IC50 [5]; 1079 of 1.2 µM. The IC50 ([5]; 72 h, 1079, hypoxia, 72 hours) was 23.7 µM, the IC50 ([5]; 72 h, 1079, normoxia, 72 hours) was 1.2 µM and the “nuclei with multiple gH2AX-positive foci” value ([6]; 08-387, hypoxia, 48 hours (control 13.6%)) was 32%. The “nuclei with multiple gH2AX-positive foci” value ([6]; 08-387, normoxia, 48 hours (control 11.6%)) was 30%, the g-H2AX positivity ([7]; 3691, hypoxia, 48 hours (control 11.3%)) was 44.2% and the g-H2AX positivity ([7]; 3691, normoxia, 48 hours (control 9%)) was 46%. For the same molecule, the “nuclei with multiple gH2AX-positive foci” value ([8]; 913, hypoxia, 48 hours (control 2.3%)) was 23%, the “nuclei with multiple gH2AX-positive foci” value ([8]; 913, normoxia, 48 hours (control 11%)) was 89% and the g-H2AX positivity ([9]; 1079, hypoxia, 48 hours (control 16.2%)) was 38.4%. It also gave a g-H2AX positivity ([9]; 1079, normoxia, 48 hours (control 14.8%)) of 32.4%, a surviving cell fraction ([10]; 08-387 EGFRvIll) of 36.7% and a surviving cell fraction ([10]; 08-387 GFP (control)) of 4%. For the same molecule, the surviving cell fraction ([11]; 913 EGFRvIll) was 55.2% and the surviving cell fraction ([11]; 913 GFP (control)) was 27.9%.
